According to US20220213092A1, “BICYCLIC PYRAZOLE BRUTON'S TYROSINE KINASE INHIBITORS” (AbbVie Inc., priority 2020, published 2022):
Like-named read-outs stand apart in the source and are kept apart here.

Assays:
[1] = Chemical inhibition in human hepatocytes (intrinsic clearance with and without CYP inhibitors); assay type: in vitro ADME; details: human, human hepatocyte suspension
Procedure: (§1) The contribution of CYPs to the metabolism of Compound 6 was evaluated in human hepatocyte suspension (about 500,000 cells/mL) (hepatocytes from BioIVT, Inc.) treated with or without azamulin (CYP3A4 mechanism-based inhibitor) or 1-aminobenzotriazole (ABT)/tienilic acid (a pan-CYP inhibitor regimen) for 30 minutes. The hepatocyte suspension with inhibitors was preincubated with 2× azamulin or 1-ABT/tienilic acid in Williams' media E and then added to 2× Compound 6 in media to give a final concentrations of 2.5 μM azamulin or 0.5 mM 1-ABT/1.5 μM tienilic acid and 0.5 μM Compound 6, respectively.
(§2) Final incubation volume was 25 μL. Samples were incubated in 384-well plates at 37° C. with 5% CO2 and gentle shaking. At each time point (0, 15, 30, 60, 120, and 240 minutes), samples in the incubation plates were quenched with acetonitrile:MeOH (95:5, v:v) with carbutamide as internal standard (quench ration 3:1). The samples were centrifuged, and the supernatant was analyzed using LC-MS/MS.
(§3) Quantitation of the substrate depletion in recombinant CYPs and FMO3 phenotyping, chemical inhibition in hepatocytes, and enzyme kinetics assays were analyzed by monitoring substrate depletion using LC-MS/MS.
(§4) The intrinsic clearance of Compound 6 in rCYP and hepatocytes was determined by integrating the parent peak on the chromatograms, and the extent of substrate depletion measured by comparing parent peak area loss over time. The elimination rate constant (k, transformation of % parent remaining versus incubation time: y=a*e^−(kt). Where y is the % parent remaining, t (min) is the time point within the incubation, and a is the % parent remaining at time 0 minute. From this, intrinsic clearance in rCYP (CLint, CYP, expressed in units of μL/min/pmol CYP) and in hepatocytes (CLint, hep, expressed in units of μL/min/million cells were derived using the equations below:
(§5) Clint,hep=k*1000/Cell Concentration (million cells/mL)
(§6) The fraction of metabolism inhibited by the chemical treatment in human hepatocytes was calculated using the equation:
(§7) fm,CYP=[Clint,hep(no inhibitor)−Clint,hep(PanCYP or azamulin])/[Clint, hep(no inhibitor)]

[2] = test system: human hepatocyte suspension; assay: as above; assay type: in vitro ADME
Procedure: as §1, §2, §3, §4, §5, §6, §7

BTK = target: T1, BTK (Homo sapiens, UniProt Q06187); assay: BTK kinase electrophoretic mobility shift assay (MSA); assay type: biochemical; details: 50 μM ATP, 0.5 nM BTK enzyme (Nanosyn-293HEK, WT), 3 hours at 25° C.; all examples except 50, 51, 62 and 63; read-out: BTK IC50
T1 construct: purchased Nanosyn, Santa Clara, Calif; host or cells: 293HEK
T1 sequence (Q06187 whole entry): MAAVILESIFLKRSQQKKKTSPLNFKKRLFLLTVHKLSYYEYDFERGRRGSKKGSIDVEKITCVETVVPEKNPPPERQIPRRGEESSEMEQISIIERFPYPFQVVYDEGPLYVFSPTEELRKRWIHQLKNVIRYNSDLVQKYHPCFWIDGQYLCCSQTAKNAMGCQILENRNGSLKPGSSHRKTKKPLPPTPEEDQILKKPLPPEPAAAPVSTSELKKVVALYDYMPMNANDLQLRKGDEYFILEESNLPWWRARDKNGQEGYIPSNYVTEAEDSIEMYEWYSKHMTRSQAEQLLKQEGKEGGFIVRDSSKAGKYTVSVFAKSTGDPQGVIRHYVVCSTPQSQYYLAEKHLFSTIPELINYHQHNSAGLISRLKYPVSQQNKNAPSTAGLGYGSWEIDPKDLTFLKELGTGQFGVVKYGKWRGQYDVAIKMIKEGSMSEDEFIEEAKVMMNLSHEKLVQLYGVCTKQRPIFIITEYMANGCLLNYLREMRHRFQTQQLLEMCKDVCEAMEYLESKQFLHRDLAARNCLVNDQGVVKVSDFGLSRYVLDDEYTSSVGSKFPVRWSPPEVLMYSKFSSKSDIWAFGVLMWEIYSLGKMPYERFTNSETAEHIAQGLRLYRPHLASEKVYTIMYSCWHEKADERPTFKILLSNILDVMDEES

hepatocyte CLint at 0.5 μM ([1]; 0.5 μM Compound 6, 0.5 mM 1-ABT/1.5 μM tienilic acid, read-out: CLint, PAN CYP): 8.23 µL/min/1e6 cells
hepatocyte CLint at 0.5 μM ([1]; 0.5 μM Compound 6, no inhibitor, read-out: CLint, no inhibitor): 13.3 µL/min/1e6 cells
hepatocyte CLint at 0.5 μM ([1]; with 2.5 μM azamulin (CYP3A4 mechanism-based inhibitor), 0.5 μM Compound 6, 2.5 μM azamulin (CYP3A4 inhibitor), read-out: CLint, Azamulin): 9.15 µL/min/1e6 cells
% Total CYP Contribution In Vitro ([2]; calculated from the PAN CYP inhibitor regimen of 1-ABT and tienilic acid, human hepatocyte suspensions): 38.3%
CYP contribution to the hepatic metabolism ([2]; following incubation with a pan-CYP inhibitor cocktail in human hepatocytes): approximately 30%
% Inhibition by azamulin ([2]; fraction of clearance in human hepatocytes inhibited by azamulin): 31.4%
non-CYP hepatic enzymes contribution to the remaining clearance ([2]; human hepatocytes): about 70%
IC50 (BTK): 1.1 nM
Structure (SMILES): C=CC(=O)N1CCN([C@@H]2CCNc3c2nn(-c2ccc(Oc4ccccc4)cc2)c3C(N)=O)CC1 [Example 6, (7R)-2-(4-phenoxyphenyl)-7-[4-(prop-2-enoyl)piperazin-1-yl]-4,5,6,7-tetrahydro-2H-pyrazolo[4,3-b]pyridine-3-carboxamide]
